ChEMBL document CHEMBL1201862, “PubChem BioAssay data set” (2004)
Calls of active or inactive are those of the source.

How the values were obtained:
[1] = biological target: NAD-dependent protein deacylase sirtuin-5, mitochondrial (Homo sapiens, UniProt Q9NXA8); assay: SIRT5 desuccinylase inhibitors, dose response, biochemical, fluorescence imaging, cherry-pick, set 5 (AID 720591);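 further: desuccinylation of succinyl peptide AMC substrate read as fluorescence after trypsin release; potency of inhibitors that lower fluorescence and may act on trypsin instead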
Sequence of NAD-dependent protein deacylase sirtuin-5, mitochondrial (Q9NXA8 whole entry): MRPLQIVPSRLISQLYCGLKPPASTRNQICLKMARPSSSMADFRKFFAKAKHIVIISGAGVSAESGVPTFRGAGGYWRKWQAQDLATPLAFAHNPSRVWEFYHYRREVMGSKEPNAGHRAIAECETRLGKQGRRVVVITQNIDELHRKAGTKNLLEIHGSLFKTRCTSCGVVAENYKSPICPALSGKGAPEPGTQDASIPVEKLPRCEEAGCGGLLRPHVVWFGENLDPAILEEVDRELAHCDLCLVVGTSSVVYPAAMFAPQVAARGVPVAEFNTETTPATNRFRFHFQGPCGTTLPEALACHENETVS

Protein Tat = Protein Tat (Human immunodeficiency virus type 1 group M subtype B (isolate HXB2)(HIV-1), UniProt P04608); format: functional;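 further: tat binding to TAR RNA read out by fluorescence polarization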
Sequence of Protein Tat (P04608 whole entry): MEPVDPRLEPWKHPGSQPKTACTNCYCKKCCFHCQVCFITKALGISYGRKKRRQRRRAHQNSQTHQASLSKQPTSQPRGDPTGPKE

[2] = biological target: Mitogen-activated protein kinase 10 (Homo sapiens, UniProt P53779); assay: Dose response biochemical screening assay for inhibitors of c-Jun N-Terminal Kinase 3 (JNK3). [Related pubchem assays: 746 ]
Sequence of Mitogen-activated protein kinase 10 (P53779 whole entry): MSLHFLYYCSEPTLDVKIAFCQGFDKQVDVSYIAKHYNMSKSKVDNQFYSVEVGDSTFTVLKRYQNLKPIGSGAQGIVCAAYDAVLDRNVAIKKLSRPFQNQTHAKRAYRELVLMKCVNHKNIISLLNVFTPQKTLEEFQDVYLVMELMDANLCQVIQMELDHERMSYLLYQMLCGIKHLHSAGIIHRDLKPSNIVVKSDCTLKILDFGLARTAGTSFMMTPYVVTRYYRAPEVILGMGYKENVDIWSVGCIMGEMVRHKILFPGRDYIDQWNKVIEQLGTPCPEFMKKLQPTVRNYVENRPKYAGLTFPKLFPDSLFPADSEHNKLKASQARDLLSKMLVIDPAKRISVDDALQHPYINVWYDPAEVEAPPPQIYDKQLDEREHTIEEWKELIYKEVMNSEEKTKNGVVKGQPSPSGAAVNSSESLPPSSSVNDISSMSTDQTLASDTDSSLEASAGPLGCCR

[3] = biological target: DNA dC->dU-editing enzyme APOBEC-3A (Homo sapiens, UniProt P31941); assay: Dose Response confirmation of small molecule APOBEC3A DNA Deaminase Inhibitors via a fluorescence-based single-stranded DNA deaminase assay. [Related pubchem assays (depositor defined):AID493011, AID493024]; format: functional
Sequence of DNA dC->dU-editing enzyme APOBEC-3A (P31941 whole entry): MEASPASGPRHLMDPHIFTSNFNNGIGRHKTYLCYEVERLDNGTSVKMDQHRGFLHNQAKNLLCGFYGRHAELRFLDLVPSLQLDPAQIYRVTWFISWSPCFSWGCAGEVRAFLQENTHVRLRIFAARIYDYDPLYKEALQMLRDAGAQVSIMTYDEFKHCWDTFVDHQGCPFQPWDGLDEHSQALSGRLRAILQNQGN

[4] = biological target: DNA dC->dU-editing enzyme APOBEC-3G (Homo sapiens, UniProt Q9HC16); format: functional;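 further: Dose-response counterscreen measuring inhibition of APOBEC3G DNA deaminase activity, run while confirming APOBEC3A inhibitors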
Sequence of DNA dC->dU-editing enzyme APOBEC-3G (Q9HC16 whole entry): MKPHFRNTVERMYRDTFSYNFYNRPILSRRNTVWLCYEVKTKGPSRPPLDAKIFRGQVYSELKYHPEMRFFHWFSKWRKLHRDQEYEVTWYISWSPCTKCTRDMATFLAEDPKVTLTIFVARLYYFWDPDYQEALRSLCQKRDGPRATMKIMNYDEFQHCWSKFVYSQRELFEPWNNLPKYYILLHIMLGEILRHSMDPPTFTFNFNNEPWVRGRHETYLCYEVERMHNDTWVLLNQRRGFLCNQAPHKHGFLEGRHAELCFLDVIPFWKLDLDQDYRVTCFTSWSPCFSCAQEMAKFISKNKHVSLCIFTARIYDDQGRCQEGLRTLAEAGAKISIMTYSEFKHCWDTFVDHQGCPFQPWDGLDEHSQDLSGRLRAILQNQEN

[5] = Dose-response inhibition of insulin secretion in a rat insulinoma line at 5 mM glucose (AID 1117331); format: functional, cell-based; conditions: INS-1E
cells = format: functional, cell-based; conditions: INS-1E
Fatty acid synthase [6] = biological target: T1, Fatty acid synthase (Homo sapiens, UniProt P49327); assay: FAS thioesterase domain inhibitors, dose response, biochemical, endpoint fluorescence intensity, uHTS hits (AID 624327); format: functional;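 further: fluorescence from hydrolysis of an O-methyl fluorescein acyl ester substrate by the enzyme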
T1 sequence (P49327 whole entry, the tested form may be a part): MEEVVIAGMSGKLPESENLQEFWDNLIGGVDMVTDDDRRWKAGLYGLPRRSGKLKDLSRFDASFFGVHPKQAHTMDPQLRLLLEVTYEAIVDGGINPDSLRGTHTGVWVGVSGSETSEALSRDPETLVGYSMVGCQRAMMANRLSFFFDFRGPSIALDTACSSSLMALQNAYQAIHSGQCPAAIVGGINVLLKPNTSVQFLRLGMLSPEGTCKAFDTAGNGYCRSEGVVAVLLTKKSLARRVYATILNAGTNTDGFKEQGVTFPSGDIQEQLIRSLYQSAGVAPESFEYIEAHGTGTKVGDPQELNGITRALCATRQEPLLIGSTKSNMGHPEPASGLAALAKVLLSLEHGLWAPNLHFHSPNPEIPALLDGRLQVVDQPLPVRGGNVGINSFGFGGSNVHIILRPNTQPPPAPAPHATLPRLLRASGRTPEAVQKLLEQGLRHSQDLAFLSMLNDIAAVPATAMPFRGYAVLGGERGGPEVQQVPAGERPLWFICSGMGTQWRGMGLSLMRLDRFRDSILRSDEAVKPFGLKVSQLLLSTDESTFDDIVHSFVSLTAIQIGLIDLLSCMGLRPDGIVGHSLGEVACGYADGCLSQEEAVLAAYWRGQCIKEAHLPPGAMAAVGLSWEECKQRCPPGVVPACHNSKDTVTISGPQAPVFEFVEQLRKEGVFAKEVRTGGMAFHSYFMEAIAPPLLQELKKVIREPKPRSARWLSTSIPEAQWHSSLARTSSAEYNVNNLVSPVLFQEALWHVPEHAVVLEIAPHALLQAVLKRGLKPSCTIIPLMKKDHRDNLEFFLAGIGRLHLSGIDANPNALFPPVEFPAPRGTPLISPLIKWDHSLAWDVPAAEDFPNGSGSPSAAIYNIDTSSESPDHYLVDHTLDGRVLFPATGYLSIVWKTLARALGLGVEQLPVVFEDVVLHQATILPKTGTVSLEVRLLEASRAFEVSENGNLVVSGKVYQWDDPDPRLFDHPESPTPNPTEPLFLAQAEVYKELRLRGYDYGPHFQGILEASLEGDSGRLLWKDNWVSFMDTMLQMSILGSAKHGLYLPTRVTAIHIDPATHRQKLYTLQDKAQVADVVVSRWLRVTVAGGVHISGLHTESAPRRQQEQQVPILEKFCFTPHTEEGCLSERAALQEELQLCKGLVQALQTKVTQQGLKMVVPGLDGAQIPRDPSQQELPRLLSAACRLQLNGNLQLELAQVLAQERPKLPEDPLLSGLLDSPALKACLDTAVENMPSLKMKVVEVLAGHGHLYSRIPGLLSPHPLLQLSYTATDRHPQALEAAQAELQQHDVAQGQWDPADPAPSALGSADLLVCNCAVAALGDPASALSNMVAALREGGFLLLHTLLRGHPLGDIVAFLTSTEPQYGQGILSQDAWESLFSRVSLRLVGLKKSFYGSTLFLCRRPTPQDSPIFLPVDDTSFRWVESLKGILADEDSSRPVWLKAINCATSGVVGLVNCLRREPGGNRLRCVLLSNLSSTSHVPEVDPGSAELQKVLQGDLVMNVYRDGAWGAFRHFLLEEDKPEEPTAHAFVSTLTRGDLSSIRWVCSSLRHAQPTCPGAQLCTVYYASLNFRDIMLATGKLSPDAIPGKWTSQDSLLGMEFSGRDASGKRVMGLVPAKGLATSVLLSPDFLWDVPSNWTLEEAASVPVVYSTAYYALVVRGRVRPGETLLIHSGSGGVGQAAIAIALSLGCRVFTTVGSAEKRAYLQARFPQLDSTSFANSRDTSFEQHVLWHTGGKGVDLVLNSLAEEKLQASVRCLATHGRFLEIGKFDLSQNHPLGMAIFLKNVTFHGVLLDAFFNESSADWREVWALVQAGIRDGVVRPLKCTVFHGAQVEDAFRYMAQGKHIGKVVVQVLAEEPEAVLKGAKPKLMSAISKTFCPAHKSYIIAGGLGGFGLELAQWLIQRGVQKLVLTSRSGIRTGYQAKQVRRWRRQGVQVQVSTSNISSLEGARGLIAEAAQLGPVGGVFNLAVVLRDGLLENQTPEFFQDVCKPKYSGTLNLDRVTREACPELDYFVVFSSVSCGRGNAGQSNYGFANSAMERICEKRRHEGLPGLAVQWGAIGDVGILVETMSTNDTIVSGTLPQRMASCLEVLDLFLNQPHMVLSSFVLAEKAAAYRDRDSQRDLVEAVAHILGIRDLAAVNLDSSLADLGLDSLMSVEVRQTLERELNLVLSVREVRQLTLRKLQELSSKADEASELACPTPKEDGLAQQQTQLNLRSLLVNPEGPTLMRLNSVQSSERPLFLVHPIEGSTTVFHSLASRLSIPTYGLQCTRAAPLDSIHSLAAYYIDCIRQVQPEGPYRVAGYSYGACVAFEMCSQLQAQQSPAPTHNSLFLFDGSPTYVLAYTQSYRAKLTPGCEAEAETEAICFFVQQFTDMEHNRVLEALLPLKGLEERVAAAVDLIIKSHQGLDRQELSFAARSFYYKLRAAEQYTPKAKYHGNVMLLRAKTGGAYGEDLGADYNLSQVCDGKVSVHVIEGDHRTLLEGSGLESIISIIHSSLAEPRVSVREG

[7] = HeLa cell cytotoxicity, dose response, cytotoxicity control for MgcRacGAP inhibitor project (AID 624300); format: functional
[8] = biological target: T2, Rac GTPase-activating protein 1 (Homo sapiens, UniProt Q9H0H5); assay: MgcRacGAP GTPase-activating activity inhibitors, confirmation, biochemical, ADP Hunter fluorescence, primary and confirmatory (AID 624330); format: functional
T2 sequence (Q9H0H5 whole entry): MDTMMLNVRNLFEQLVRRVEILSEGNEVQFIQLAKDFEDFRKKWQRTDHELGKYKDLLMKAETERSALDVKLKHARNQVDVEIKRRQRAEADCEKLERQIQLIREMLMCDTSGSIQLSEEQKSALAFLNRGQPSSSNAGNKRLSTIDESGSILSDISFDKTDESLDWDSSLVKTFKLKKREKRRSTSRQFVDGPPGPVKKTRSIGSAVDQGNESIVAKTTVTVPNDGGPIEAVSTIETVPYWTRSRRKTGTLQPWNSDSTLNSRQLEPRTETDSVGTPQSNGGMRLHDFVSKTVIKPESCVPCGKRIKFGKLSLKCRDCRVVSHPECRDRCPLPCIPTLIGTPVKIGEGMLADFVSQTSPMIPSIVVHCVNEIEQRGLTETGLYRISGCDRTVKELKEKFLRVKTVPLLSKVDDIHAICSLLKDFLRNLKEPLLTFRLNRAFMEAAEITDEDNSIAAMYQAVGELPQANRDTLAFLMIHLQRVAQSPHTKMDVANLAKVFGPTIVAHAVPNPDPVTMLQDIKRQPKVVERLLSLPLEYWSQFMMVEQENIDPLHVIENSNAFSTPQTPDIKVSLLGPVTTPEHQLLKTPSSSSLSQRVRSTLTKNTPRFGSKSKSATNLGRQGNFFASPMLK

Fatty acid synthase [9] = biological target: T1, Fatty acid synthase; assay: FAS thioesterase domain inhibitors, dose response, biochemical, kinetic fluorescence intensity (AID 624326); format: functional;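 further: rate of fluorescence rise from hydrolysis of a fluorogenic O-methyl fluorescein ester substrate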
[10] = Luminescence-based cell-based high throughput dose response assay to identify activators of the DAF-12 from the parasite S. stercoralis (ssDAF-12).; format: functional
[11] = biological target: T3, Oxysterols receptor LXR-beta (Homo sapiens, UniProt P55055); assay: LXR agonists, Gal4 luciferase reporter, dose response, counter-screen for ssDAF-12 agonist project, cell-based, luminescence, HEK293, S. stercoralis campaign (AID 720737); format: functional; conditions: read-out: IC50 (the source's name)
T3 sequence (P55055 whole entry): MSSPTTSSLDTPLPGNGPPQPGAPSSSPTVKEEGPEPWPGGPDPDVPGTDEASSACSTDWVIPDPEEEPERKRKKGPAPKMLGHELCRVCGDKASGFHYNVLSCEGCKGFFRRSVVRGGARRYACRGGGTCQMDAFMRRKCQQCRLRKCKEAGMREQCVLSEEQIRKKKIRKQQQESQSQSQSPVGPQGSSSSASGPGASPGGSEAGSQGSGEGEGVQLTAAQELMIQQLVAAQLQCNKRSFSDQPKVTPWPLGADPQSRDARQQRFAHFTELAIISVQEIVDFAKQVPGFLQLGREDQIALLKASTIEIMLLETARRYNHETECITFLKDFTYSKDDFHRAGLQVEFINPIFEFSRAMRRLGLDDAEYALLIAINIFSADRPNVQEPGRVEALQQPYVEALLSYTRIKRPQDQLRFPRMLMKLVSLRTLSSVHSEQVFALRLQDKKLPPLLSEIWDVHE

[12] = biological target: Neuropeptide Y receptor type 2 (Homo sapiens, UniProt P49146); assay: NPY-Y2 antagonist potency, selectivity check, dose response, counter-screen for NPY-Y1 antagonist project, cell-based (AID 1278); format: functional
Sequence of Neuropeptide Y receptor type 2 (P49146 whole entry, the tested form may be a part): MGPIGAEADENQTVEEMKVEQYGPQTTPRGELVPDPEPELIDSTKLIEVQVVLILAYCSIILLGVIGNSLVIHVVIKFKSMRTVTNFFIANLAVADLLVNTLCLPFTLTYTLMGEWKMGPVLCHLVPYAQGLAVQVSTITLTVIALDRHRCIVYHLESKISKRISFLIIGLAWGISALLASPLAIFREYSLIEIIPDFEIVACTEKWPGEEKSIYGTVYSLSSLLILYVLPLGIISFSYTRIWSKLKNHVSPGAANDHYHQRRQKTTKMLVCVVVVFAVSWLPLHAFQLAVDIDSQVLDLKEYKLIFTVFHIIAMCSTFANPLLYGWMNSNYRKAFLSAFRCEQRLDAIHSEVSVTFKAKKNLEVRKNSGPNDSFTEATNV

[13] = inhibitors of HIV Env-driven cell fusion, dose response, cherry-pick (AID 652057); format: functional, cell-based
[14] = inhibitors of clade B AD8 Env fusion, dose response, cell-based, cherry-pick (AID 652062); format: functional;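 further: luciferase signal from cell-cell fusion driven by HIV-1 clade B AD8 Env; potency is for inhibitors of fusion seen as a drop in luminescence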
[15] = HIV Env cell-cell fusion inhibitors, dose response, HIV entry, plate reader, dry powder (AID 687023); format: functional, cell-based
[16] = CEM21 cell cytotoxicity, dose response, cytotoxicity control, plate reader, dry powder (AID 687026); format: functional, cell-based

Cc1cccc(Cn2c(N(C)CCO)nc3c2c(=O)[nH]c(=O)n3C)c1
AC50 [1]: > 30 µM (inactive)

CCc1ccccc1N(CC(=O)NCCSCc1ccco1)S(C)(=O)=O
IC50 (Protein Tat): > 100 µM (active)

CC1(C)Oc2ccc3ccc(=O)oc3c2-c2c[nH]nc21
IC50 [2]: > 31 µM (not active) | IC50 [3]: 4.45 µM (active) | IC50 [4]: 5.7 µM (active)

c1cc(CN2CCCCC2)cc(OCCCNc2nc3ccccc3s2)c1
IC50 [5]: > 11.1 µM (inactive) | IC50 (cells): > 33.3 µM (inactive)

CCC(C)n1c(=S)[nH]c2c(sc3ccc([N+](=O)[O-])cc32)c1=O (stereo not drawn)
IC50 (Fatty acid synthase [6]): 17.1 µM (active) | CC50 [7]: 100 µM (active) | IC50 [8]: 73.3 µM (active) | IC50 (Fatty acid synthase [9]): 15.5 µM (active) | IC50 [10]: > 67.5 µM (inactive) | EC50 [11]: > 67.5 µM (inactive)

CC(C)CC(c1nnnn1C1CCCC1)N1CCN(c2ccccc2F)CC1 (stereo not drawn)
IC50 [12]: 24.4 µM (not active)

C[C@@H]1CN([C@H](C)CO)C(=O)c2cccc(NC(=O)C3CCCCC3)c2O[C@H]1CN(C)Cc1ccccc1
AC50 [13]: 12.1 µM (active) | AC50 [14]: 3.35 µM (active) | AC50 [15]: 8.1 µM (active) | AC50 [16]: 31 µM (active)
